Test results: ChEMBL document CHEMBL1129904, “3-chloro-4-carboxamido-6-arylpyridazines as a non-peptide class of interleukin-1 converting enzyme inhibitor” (Bioorg Med Chem Lett, 1997)

How the values were obtained:
Caspase-1 = biological target: T1, Caspase-1 (Homo sapiens, UniProt P29466); assay: Antiinflammatory activity measured as the concentration required to inhibit IL-1 beta converting enzyme
T1 sequence (P29466 whole entry): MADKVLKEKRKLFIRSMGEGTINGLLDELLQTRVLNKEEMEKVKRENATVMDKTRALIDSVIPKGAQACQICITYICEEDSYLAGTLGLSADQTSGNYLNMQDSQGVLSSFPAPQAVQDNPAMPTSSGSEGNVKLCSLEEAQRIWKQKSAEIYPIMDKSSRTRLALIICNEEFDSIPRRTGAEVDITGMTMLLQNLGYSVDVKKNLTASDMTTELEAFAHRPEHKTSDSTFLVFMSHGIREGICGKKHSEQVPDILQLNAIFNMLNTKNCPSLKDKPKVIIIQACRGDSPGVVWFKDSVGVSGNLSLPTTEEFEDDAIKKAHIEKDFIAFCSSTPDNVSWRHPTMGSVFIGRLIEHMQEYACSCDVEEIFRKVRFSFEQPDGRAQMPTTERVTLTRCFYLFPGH

Caspase-1 (Homo sapiens) = biological target: T2, Caspase-1 (Homo sapiens) (UniProt P29466); assay: Inactivation of IL-1 beta converting enzyme
T2 sequence (whole entry): T1 sequence (P29466 whole entry)

| SMILES | IC50 (Caspase-1) [µM] | k obs / 1 (Caspase-1 (Homo sapiens)) [M⁻¹ s⁻¹] |
| --- | --- | --- |
| NC(=O)c1cc(-c2ccncc2)nnc1Cl | 3 | 70 |
| NC(=O)c1cnnc(-c2ccncc2)c1 | > 250 |  |
| O=C(NCc1ccccc1)c1cc(-c2ccncc2)nnc1Cl | 4 | 50 |
| O=C(NCc1ccc(Cl)cc1Cl)c1cc(-c2ccncc2)nnc1Cl | 2 | 140 |
| NC(=O)c1cc(-c2ccc(C(F)(F)F)cc2)nnc1Cl | 5 | 40 |
| NC(=O)c1cc(-c2ccc(F)c(Cl)c2)nnc1Cl | 5.5 | 45 |
| CS(=O)(=O)c1c(F)cc(-c2cc(C(N)=O)c(Cl)nn2)cc1F | 0.3 | 355 |
| CCOC(=O)c1cc(-c2ccncc2)nnc1Cl | 13 | 10 |
| COc1nnc(-c2ccncc2)cc1C(N)=O | > 250 |  |
| Cc1c(-c2ccc(Cl)cc2)nnc(Cl)c1C(N)=O | > 250 |  |
| N#Cc1ccc(-c2cc(C(N)=O)c(Cl)nn2)cc1Cl | 0.5 | 225 |
| N#Cc1cc(-c2ccncc2)nnc1Cl | 110 |  |
| NC(=O)c1cc(-c2ccc([N+](=O)[O-])cc2)nnc1Cl | 0.7 |  |
| CN(C)C(=O)c1cc(-c2ccncc2)nnc1Cl | > 250 |  |
| CSc1nnc(-c2ccncc2)cc1C(N)=O | > 250 |  |
| N#Cc1ccc(-c2cc(C(N)=O)c(Cl)nn2)cc1 | 1.5 |  |
| NC(=O)c1cc(-c2ccc(Br)cc2)nnc1Cl | 5 |  |
| NC(=O)c1cc(-c2ccc(NS(=O)(=O)c3ccccc3)cc2)nnc1Cl | 18 |  |
| CNC(=O)c1cc(-c2ccncc2)nnc1Cl | 10 | 25 |
| NC(=O)c1cc(-c2ccncc2)cnc1Cl | > 250 |  |
| CCOC(=O)CNC(=O)c1cc(-c2ccncc2)nnc1Cl | 2 |  |
| COc1ccc(-c2cc(C(N)=O)c(Cl)nn2)cc1 | 66 | < 5 |
| CNC(=O)c1cc(Cl)nnc1Cl | > 250 |  |
| NC(=O)c1cc(-c2ccc(Cl)cc2)nnc1Cl | 5 |  |
| NC(=O)c1cc(-c2ccccc2)nnc1Cl | 57 | < 5 |
